Settings: Gas, isochoric method

CCF [fluoroethane]
Settings | mass density [kg/m3]
300.16 K, 642.2 kPa | 13.92
305.16 K, 656.6 kPa | 13.917
310.14 K, 670.4 kPa | 13.913
312.16 K, 1205.6 kPa | 27.61
314.16 K, 1218.3 kPa | 27.607
315.15 K, 684.8 kPa | 13.91
316.15 K, 1231.8 kPa | 27.605
318.15 K, 1244.1 kPa | 27.602
320.14 K, 698.5 kPa | 13.906
322.16 K, 1268.7 kPa | 27.596
324.15 K, 1614.6 kPa | 37.54
325.14 K, 712.3 kPa | 13.903
326.14 K, 1634.4 kPa | 37.536
326.16 K, 1293.4 kPa | 27.591
328.15 K, 1652.5 kPa | 37.533
330.15 K, 1670.2 kPa | 37.529
330.16 K, 726.1 kPa | 13.899
330.16 K, 1317.6 kPa | 27.585
332.15 K, 2022.6 kPa | 48.84
334.16 K, 1341.9 kPa | 27.58
334.16 K, 1704.9 kPa | 37.521
334.16 K, 2047.7 kPa | 48.835
335.15 K, 739.5 kPa | 13.896
336.16 K, 2072.5 kPa | 48.83
338.12 K, 2287.8 kPa | 56.23
338.16 K, 1739 kPa | 37.514
338.17 K, 1365.6 kPa | 27.574
338.2 K, 2096.6 kPa | 48.825
339.16 K, 2108.2 kPa | 48.823
340.12 K, 2318.8 kPa | 56.224
340.15 K, 752.5 kPa | 13.892
340.15 K, 2419 kPa | 60.32
340.16 K, 2120.6 kPa | 48.821
342.12 K, 2347.8 kPa | 56.219
342.16 K, 1388.9 kPa | 27.569
342.16 K, 2144.2 kPa | 48.816
342.16 K, 2450.7 kPa | 60.314
342.17 K, 1773.5 kPa | 37.506
344.12 K, 2376.7 kPa | 56.213
344.16 K, 2167.5 kPa | 48.811
344.16 K, 2482.2 kPa | 60.308
346.12 K, 2404.5 kPa | 56.208
346.14 K, 2707.5 kPa | 68.66
346.15 K, 768.9 kPa | 13.888
346.15 K, 1412.4 kPa | 27.563
346.15 K, 2513.1 kPa | 60.302
346.16 K, 1806.7 kPa | 37.499
346.16 K, 2190.7 kPa | 48.806
347.15 K, 2725.9 kPa | 68.657
348.13 K, 2432.7 kPa | 56.202
348.15 K, 2743.8 kPa | 68.653
348.16 K, 2214 kPa | 48.801
348.16 K, 2543 kPa | 60.296
350.15 K, 1435.8 kPa | 27.558
350.15 K, 2460.5 kPa | 56.196
350.15 K, 2779.8 kPa | 68.646
350.16 K, 1840.5 kPa | 37.491
350.16 K, 2237.2 kPa | 48.796
350.16 K, 2573.4 kPa | 60.29
350.16 K, 2978.2 kPa | 78.21
351.16 K, 2999.9 kPa | 78.206
352.15 K, 2488.2 kPa | 56.191
352.15 K, 2815 kPa | 68.639
352.16 K, 2260.1 kPa | 48.791
352.16 K, 2603.3 kPa | 60.284
352.17 K, 3021.2 kPa | 78.202
353.14 K, 3180.2 kPa | 85.66
353.16 K, 3042.3 kPa | 78.198
354.15 K, 3204.5 kPa | 85.656
354.16 K, 790.7 kPa | 13.883
354.16 K, 1458.8 kPa | 27.552
354.16 K, 1873.7 kPa | 37.484
354.16 K, 2283 kPa | 48.787
354.16 K, 2515.3 kPa | 56.185
354.16 K, 2633.4 kPa | 60.278
354.16 K, 2850.7 kPa | 68.633
354.17 K, 3062.9 kPa | 78.194
355.15 K, 3227.8 kPa | 85.651
356.14 K, 2542.3 kPa | 56.18
356.15 K, 2663.1 kPa | 60.272
356.15 K, 2885.7 kPa | 68.626
356.16 K, 2305.7 kPa | 48.782
356.16 K, 3104.4 kPa | 78.187
356.26 K, 3251.2 kPa | 85.647
357.26 K, 3274.8 kPa | 85.642
358.15 K, 1481.8 kPa | 27.547
358.15 K, 1906.7 kPa | 37.477
358.15 K, 2569.2 kPa | 56.174
358.15 K, 2920 kPa | 68.619
358.15 K, 3297.7 kPa | 85.639
358.16 K, 2328.4 kPa | 48.777
358.16 K, 2692.5 kPa | 60.266
358.16 K, 3145.7 kPa | 78.179
358.16 K, 3506.4 kPa | 97.915
359.16 K, 3534.2 kPa | 97.91
360.15 K, 2595.9 kPa | 56.168
360.15 K, 2954.3 kPa | 68.612
360.16 K, 2721.3 kPa | 60.26
360.16 K, 3186 kPa | 78.171
360.16 K, 3343.9 kPa | 85.63
360.16 K, 3562.2 kPa | 97.905
360.17 K, 2350.8 kPa | 48.772
360.17 K, 3660.7 kPa | 104.59
361.15 K, 3589.9 kPa | 97.9
361.16 K, 3691 kPa | 104.585
362.14 K, 2622.7 kPa | 56.163
362.15 K, 811.8 kPa | 13.877
362.15 K, 2988.3 kPa | 68.605
362.15 K, 3226.2 kPa | 78.163
362.15 K, 3389.2 kPa | 85.622
362.15 K, 3617 kPa | 97.896
362.16 K, 1505 kPa | 27.541
362.16 K, 1939.6 kPa | 37.469
362.16 K, 3721.4 kPa | 104.58
362.17 K, 2373 kPa | 48.767
362.17 K, 2750.9 kPa | 60.254
363.15 K, 3644.5 kPa | 97.891
363.16 K, 3751.4 kPa | 104.574
364.15 K, 2649.2 kPa | 56.157
364.15 K, 3023 kPa | 68.598
364.15 K, 3434.4 kPa | 85.613
364.15 K, 3780.8 kPa | 104.569
364.16 K, 2394.9 kPa | 48.762
364.16 K, 3266.5 kPa | 78.156
364.16 K, 3671.6 kPa | 97.886
364.17 K, 2779.6 kPa | 60.248
365.16 K, 3698.9 kPa | 97.881
365.16 K, 3810.4 kPa | 104.564
366.14 K, 1527.7 kPa | 27.536
366.14 K, 2675.7 kPa | 56.152
366.15 K, 1971.5 kPa | 37.462
366.15 K, 3056.7 kPa | 68.592
366.15 K, 3306.2 kPa | 78.148
366.15 K, 3478.5 kPa | 85.605
366.15 K, 3725.2 kPa | 97.876
366.15 K, 3839.8 kPa | 104.559
366.16 K, 2417.4 kPa | 48.757
366.16 K, 2808.4 kPa | 60.242
367.15 K, 3751.8 kPa | 97.871
367.15 K, 3869 kPa | 104.554
368.14 K, 2702 kPa | 56.146
368.14 K, 3090.7 kPa | 68.585
368.15 K, 3346 kPa | 78.14
368.15 K, 3523.3 kPa | 85.596
368.15 K, 3898.1 kPa | 104.548
368.16 K, 2439.4 kPa | 48.753
368.16 K, 2837.3 kPa | 60.236
368.16 K, 3778.8 kPa | 97.866
369.14 K, 3805.1 kPa | 97.861
369.15 K, 3927.3 kPa | 104.543
370.12 K, 1550.1 kPa | 27.531
370.13 K, 3123.8 kPa | 68.578
370.14 K, 2728 kPa | 56.14
370.14 K, 3568 kPa | 85.588
370.14 K, 3831.8 kPa | 97.857
370.15 K, 833.2 kPa | 13.872
370.15 K, 2461.8 kPa | 48.748
370.15 K, 3385.9 kPa | 78.132
370.15 K, 3956.2 kPa | 104.538
370.16 K, 2004 kPa | 37.454
370.16 K, 2865.8 kPa | 60.23

— the NIST ThermoML archive (doi:10.1016/j.fluid.2005.08.011)
